# Assay results reported in PMC6274350, “Design, Synthesis, and Cytotoxicity of 5-Fluoro-2-methyl-6-(4-aryl-piperazin-1-yl) Benzoxazoles” (Molecules, 2016).
# Test system: not listed separately
# Assay: Visible solubility / precipitation of test compounds in cell-culture media
# Assay type: physicochemical
# Conditions: 50 µM; no conclusion on cytotoxicity possible
# Procedure: Since the majority of test compound solutions with concentrations above 50 µM precipitated in cell-culture media, we performed cytotoxicity assays for healthy and cancer cells at 50 µM.
row,SMILES,Precipitation in cell-culture media
1,"COc1cccc(N2CCN(c3cc4oc(C)nc4cc3F)CC2)c1 [Compound 7i, 5-Fluoro-6-[4-(3-methoxy-phenyl)-piperazin-1-yl]-2-methyl-benzooxazole]",precipitation problem
2,"Cc1nc2cc(F)c(N3CCN(c4ccc(F)cc4)CC3)cc2o1 [Compound 7d, 5-Fluoro-6-[4-(4-fluoro-phenyl)-piperazin-1-yl]-2-methyl-benzooxazole]",precipitation problem

# Test system: not given
# Assay: not given
# Conditions: not given
row,melting point [°C],SMILES
1,124 to 125,"COc1cccc(N2CCN(c3cc4oc(C)nc4cc3F)CC2)c1 [Compound 7i, 5-Fluoro-6-[4-(3-methoxy-phenyl)-piperazin-1-yl]-2-methyl-benzooxazole]"
2,148 to 150,"Cc1nc2cc(F)c(N3CCN(c4ccc(F)cc4)CC3)cc2o1 [Compound 7d, 5-Fluoro-6-[4-(4-fluoro-phenyl)-piperazin-1-yl]-2-methyl-benzooxazole]"

# Test system: not listed separately
# Assay: CellTiter-Glo luminescent cell viability (cytotoxicity) assay on hepatocytes
# Assay type: cell-based, human
# Conditions: human; Liver cells, hepatocytes (HepaRG); 0.1 µM; 24 h; vs DMSO vehicle
# Procedure: (§1) The cytotoxicity of prepared benzoxazoles (7a–j) and intermediates (6a–j and 9) were measured by applying the CellTiter-Glo® luminescent cell proliferation assay (G755A, Promega, Madison, WI, USA). This method permits the determination of viable cells numbers in the culture based on quantitation of the ATP present, which denotes the presence of metabolically active cells. In vitro cytotoxicity analysis was overall performed following the protocol as described in “Guidance Document on Using in Vitro Data to Estimate in Vivo Starting Doses for Acute Toxicity Based on Recommendations” [18]. Human A-549 cells are human lung cancer epithelial cells, which were chosen as the tumor model, whereas the HepaRG™ cell line is a classic hepatic cell line that retains many characteristics of primary human hepatocytes. HepaRG™ cells are terminally differentiated.
# (§2) Human cell cultures: Hepatocytes (HepaRG^TM cells) were obtained from Life Technologies, and were cultivated in William’s E Medium (Gibco, Life Technologies, Waltham, MA, USA) and supplemented with 1x GlutaMAX™ plus 1x HepaRG^TM General Purpose Medium Supplement in 25-cm^2 or 75-cm^2 flasks (TPP, Trasadingen, Switzerland) at 37 °C and 5% CO2. Lung cancer epithelial cells A-549 were propagated in Epilife Medium (Gibco, Life Technologies; MEPICF) and combined with CaCl2 and 1x-growth-supplement containing penicillin and streptomycin (Gibco, Life Technologies). For sub-culturing, cells were split at a ratio of 1:4 to 1:8. For cryopreservation, cells were frozen in 10% DMSO in liquid nitrogen.
# (§3) Human cytotoxicity assay: Human hepatocytes or human lung carcinoma cells were seeded into sterile black clear-bottomed polystyrene Corning® CellBind® 96-well plates (Munich, Germany) at a density of 20,000 cells/well after calculating cell numbers from trypsinized samples in a classical Neubauer Improved hemocytometer (VWR, Munich, Germany). The cells were grown for 24 h at 37 °C in a 5% CO2 atmosphere in Epilife medium (keratinocytes) or William′s E medium (hepatocytes). After a 24-h recovery period, media were removed from the wells by aspiration. The cells were then immediately exposed to the respective test compounds or reference antibiotics (prepared in advance in 100 µL of the same media) for 24 h 37 °C with 5% CO2. The concentration tested ranged from 0.1 µM to 500 µM (0.1 µM, 1 µM, 10 µM, 50 µM, 100 µM, 250 µM, and 500 µM) and was formulated as a 100× concentrated stock each, resulting in a final constant DMSO concentration of 1% per 100-µL sample volume. Test series were each performed in triplicate, and additionally included a vehicle reference (DMSO only) plus another internal control for evaluating overall assay performance. Additionally, cells were visually examined under a light microscope for any morphological abnormalities relative to the untreated cells. Subsequently, cell viability, as an indicator of potential cytotoxicity, was measured by applying the CellTiter-Glo® luminescent cell proliferation assay (G755A, Promega, Madison, WI, USA). This method permits the determination of the number of viable cells in culture based on quantitation of the ATP present, which denotes the presence of metabolically active cells. To this end, 100 µL (equal to the volume of culture medium) of the kit-provided CellTiter-Glo® reagent (reconstituted by transferring the thawed CellTiter-Glo® buffer to the lyophilized enzyme and substrate mixture) was directly added to each well with a repetitive dispensing pipette. The contents were then mixed for 2 min at room temperature on an orbital minishaker (IKA® MS3 digital, Staufen, Germany) at 450 rpm to induce efficient cell lysis, and then further incubated for 10 min at room temperature for stabilization of the resultant luminescent signal. […]
row,SMILES,"viability at 24 h, 0.1 µM [%]"
1,"COc1cccc(N2CCN(c3cc4oc(C)nc4cc3F)CC2)c1 [Compound 7i, 5-Fluoro-6-[4-(3-methoxy-phenyl)-piperazin-1-yl]-2-methyl-benzooxazole]",100
2,"Cc1nc2cc(F)c(N3CCN(c4ccc(F)cc4)CC3)cc2o1 [Compound 7d, 5-Fluoro-6-[4-(4-fluoro-phenyl)-piperazin-1-yl]-2-methyl-benzooxazole]",91

# Same assay, conditions: human; Liver cells, hepatocytes (HepaRG); 1 µM; 24 h; vs DMSO vehicle
row,SMILES,"viability at 24 h, 1 µM [%]"
1,"COc1cccc(N2CCN(c3cc4oc(C)nc4cc3F)CC2)c1 [Compound 7i, 5-Fluoro-6-[4-(3-methoxy-phenyl)-piperazin-1-yl]-2-methyl-benzooxazole]",102
2,"Cc1nc2cc(F)c(N3CCN(c4ccc(F)cc4)CC3)cc2o1 [Compound 7d, 5-Fluoro-6-[4-(4-fluoro-phenyl)-piperazin-1-yl]-2-methyl-benzooxazole]",94

# Same assay, conditions: human; Liver cells, hepatocytes (HepaRG); 10 µM; 24 h; vs DMSO vehicle
row,SMILES,"viability at 24 h, 10 µM [%]"
1,"COc1cccc(N2CCN(c3cc4oc(C)nc4cc3F)CC2)c1 [Compound 7i, 5-Fluoro-6-[4-(3-methoxy-phenyl)-piperazin-1-yl]-2-methyl-benzooxazole]",91
2,"Cc1nc2cc(F)c(N3CCN(c4ccc(F)cc4)CC3)cc2o1 [Compound 7d, 5-Fluoro-6-[4-(4-fluoro-phenyl)-piperazin-1-yl]-2-methyl-benzooxazole]",85

# Test system: A-549 lung carcinoma cells
# Assay: CellTiter-Glo luminescent cell viability (cytotoxicity) assay on lung cancer cells
# Assay type: cell-based, human
# Conditions: Homo sapiens, A549; Lung cancer cells (A-549); 0.1 µM; 24 h; vs DMSO vehicle
# Procedure: as §1, §2, §3
row,SMILES,viability at 0.1 µM [%]
1,"COc1cccc(N2CCN(c3cc4oc(C)nc4cc3F)CC2)c1 [Compound 7i, 5-Fluoro-6-[4-(3-methoxy-phenyl)-piperazin-1-yl]-2-methyl-benzooxazole]",105
2,"Cc1nc2cc(F)c(N3CCN(c4ccc(F)cc4)CC3)cc2o1 [Compound 7d, 5-Fluoro-6-[4-(4-fluoro-phenyl)-piperazin-1-yl]-2-methyl-benzooxazole]",98

# Same assay, conditions: Homo sapiens, A549; Lung cancer cells (A-549); 1 µM; 24 h; vs DMSO vehicle
row,SMILES,viability at 1 µM [%]
1,"COc1cccc(N2CCN(c3cc4oc(C)nc4cc3F)CC2)c1 [Compound 7i, 5-Fluoro-6-[4-(3-methoxy-phenyl)-piperazin-1-yl]-2-methyl-benzooxazole]",102
2,"Cc1nc2cc(F)c(N3CCN(c4ccc(F)cc4)CC3)cc2o1 [Compound 7d, 5-Fluoro-6-[4-(4-fluoro-phenyl)-piperazin-1-yl]-2-methyl-benzooxazole]",98

# Same assay, conditions: Homo sapiens, A549; Lung cancer cells (A-549); 10 µM; 24 h; vs DMSO vehicle
row,SMILES,viability at 10 µM [%]
1,"COc1cccc(N2CCN(c3cc4oc(C)nc4cc3F)CC2)c1 [Compound 7i, 5-Fluoro-6-[4-(3-methoxy-phenyl)-piperazin-1-yl]-2-methyl-benzooxazole]",88
2,"Cc1nc2cc(F)c(N3CCN(c4ccc(F)cc4)CC3)cc2o1 [Compound 7d, 5-Fluoro-6-[4-(4-fluoro-phenyl)-piperazin-1-yl]-2-methyl-benzooxazole]",87

# Same assay, conditions: Homo sapiens, A549; Lung cancer cells (A-549); 50 µM; 24 h; vs DMSO vehicle
row,SMILES,viability at 50 µM [%]
1,"COc1cccc(N2CCN(c3cc4oc(C)nc4cc3F)CC2)c1 [Compound 7i, 5-Fluoro-6-[4-(3-methoxy-phenyl)-piperazin-1-yl]-2-methyl-benzooxazole]",76
2,"Cc1nc2cc(F)c(N3CCN(c4ccc(F)cc4)CC3)cc2o1 [Compound 7d, 5-Fluoro-6-[4-(4-fluoro-phenyl)-piperazin-1-yl]-2-methyl-benzooxazole]",87

# Same assay, conditions: Homo sapiens, A549; Lung cancer cells (A-549); 100 µM; 24 h; vs DMSO vehicle
row,SMILES,viability at 100 µM [%]
1,"COc1cccc(N2CCN(c3cc4oc(C)nc4cc3F)CC2)c1 [Compound 7i, 5-Fluoro-6-[4-(3-methoxy-phenyl)-piperazin-1-yl]-2-methyl-benzooxazole]",75
2,"Cc1nc2cc(F)c(N3CCN(c4ccc(F)cc4)CC3)cc2o1 [Compound 7d, 5-Fluoro-6-[4-(4-fluoro-phenyl)-piperazin-1-yl]-2-methyl-benzooxazole]",82
